Experimental data from ChEMBL document CHEMBL4270553, “Synthesis and anticancer activity of new dihydropyrimidinone derivatives” (Eur J Med Chem, 2018).
pIC50: −log10 of the molar value.

Tests used:
[1] = test system: A549; assay: Induction of apoptosis in human A549 cells assessed as caspase3 expression at 7.4 uM after 2 hrs by ELISA (reference value: 53.45 ng/ml); assay type: functional
[2] = test system: A549; assay: Induction of apoptosis in human A549 cells assessed as necrotic cells at 2 uM after 24 hrs by Annexin V-FITC/propidium iodide staining-based flow cytometric analysis (reference value: 0.07%); assay type: functional
[3] = test system: A549; assay: Induction of apoptosis in human A549 cells 24 hrs by propidium iodide staining-based flow cytometric analysis (reference value: 0.92%); assay type: functional
[4] = test system: A549; assay: Cell cycle arrest in human A549 cells assessed as accumulation of cells at G2/M phase at 2 uM after 24 hrs by propidium iodide staining-based flow cytometric analysis (reference value: 6.2%); assay type: functional
[5] = test system: A549; assay: Induction of apoptosis in human A549 cells assessed as caspase9 expression at 7.4 uM after 2 hrs by ELISA (reference value: 0.1726 ng/ml); assay type: functional
[6] = test system: A549; assay: Cell cycle arrest in human A549 cells assessed as accumulation of cells at pre-G1 phase at 2 uM after […] by propidium iodide staining-based flow cytometric analysis (reference value: 0.92%); assay type: functional
[7] = test system: A549; assay: Induction of apoptosis in human A549 cells assessed as viable cells at 2 uM after 24 hrs by Annexin V-FITC/propidium iodide staining-based flow cytometric analysis (reference value: 97.5%); assay type: functional; conditions: A549, 24 h, read-out: Activity
[8] = test system: A549; assay: Cell cycle arrest in human A549 cells assessed as accumulation of cells at G0/G1 phase at 2 uM after 24 hrs by propidium iodide staining-based flow cytometric analysis (reference value: 67.62%); assay type: functional
[9] = test system: A549; assay: Induction of apoptosis in human A549 cells assessed as late apoptotic cells at 2 uM after 24 hrs by Annexin V-FITC/propidium iodide staining-based flow cytometric analysis (reference value: 0.33%); assay type: functional
[10] = test system: A549; assay: Cell cycle arrest in human A549 cells assessed as accumulation of cells at S phase at 2 uM after 24 hrs by propidium iodide staining-based flow cytometric analysis (reference value: 25.26%); assay type: functional
[11] = test system: A549; assay: Induction of apoptosis in human A549 cells assessed as early apoptotic cells at 2 uM after 24 hrs by Annexin V-FITC/propidium iodide staining-based flow cytometric analysis (reference value: 0.52%); assay type: functional
[12] = test system: MCF7; assay: Cytotoxicity against human MCF7 cells after 24 hrs by MTT assay; assay type: functional, cell-based; conditions: MCF7, 24 h
[13] = test system: PC-3; assay: cells; conditions: Homo sapiens, PC-3, 24 h
Description: Cytotoxicity against human PC3 cells after 24 hrs by MTT assay

[14] = test system: HCT-116; assay: cells; conditions: Homo sapiens, HCT-116, 24 h
Description: Cytotoxicity against human HCT116 cells after 24 hrs by MTT assay

## O=c1[nH]cc(F)c(=O)[nH]1 [FLUOROURACIL]
[1]
  Activity: 582.1 ng/mL
[2]
  Activity: 2.52%
[3]
  Activity: 15.52%
[4]
  Activity: 21.04%
[5]
  Activity: 16.84 ng/mL
[6]
  Activity: 15.52%
[7]
  viability at 2 µM: 82.7%
[8]
  Activity: 47.36%
[9]
  Activity: 6.59%
[10]
  Activity: 16.08%
[11]
  Activity: 6.37%

## CCOC(=O)C1=C(CSc2nnc(-c3ccc(C)cc3)o2)N(C)C(=O)NC1c1ccccc1 (configuration not stated)
[12]
  pIC50: 4.60
[13]
  pIC50: 4.21
[14]
  pIC50: 4.44

## CCOC(=O)C1=C(CSC(=S)N2CCN(c3ccccc3OCC)CC2)N(C)C(=O)NC1c1ccccc1 (configuration not stated)
[12]
  pIC50: 4.27
[13]
  pIC50: 4.14
[14]
  pIC50: 4.17
